Literature values in patent US20250051594A1, “INKJET INK” (KYOCERA DOCUMENT SOLUTIONS INC., priority 2023, published 2025).
Where two headings read alike, the source gives them in different places.

Conditions: octanol/water partition coefficient of the organic solvent

| SMILES | LogKow | LogKow (listed as propylene glycol) | LogKow (listed as ethylene glycolbutylethylether) |
| --- | --- | --- | --- |
| CC(O)CO (centres unmarked) [PG, propylene glycol] | −0.92 | higher than −1.00 | – |
| OCCOCCO [Diethylene glycol] | −1.47 | – | – |
| COCCOCCO [Diethylene glycol monomethylether] | −1.18 | – | – |
| CCCCOCCOCCOC [Diethylene glycolbutylmethylether] | −1.20 | – | – |
| OCCOCCOCCO [Triethylene glycol] | −1.75 | – | – |
| OCCCO [1,3-propanediol] | −1.04 | – | – |
| CCCOC(C)COC(C)CO (centres unmarked) [Dipropylene glycol monopropylether] | −1.53 | – | – |
| CCCCOCCOCC [EBEE, ethylene glycol butylethylether] | −1.88 | – | lower than −1.80 |
| OCC(O)CO [Glycerin] | −1.76 | – | – |
| COC(C)COC(C)COC(C)CO (centres unmarked) [Tripropylene glycol monomethylether] | −1.24 | – | – |
| COCCOCCOCCO [Triethylene glycol monomethylether] | −1.46 | – | – |
| CCCCOCC(C)O (centres unmarked) [Propylene glycol monobutylether] | −1.36 | – | – |
